Values after ≈ are worked out from the molar mass of the structure shown. Read-outs that look alike come from different tables or passages of the source. Non-standard residues stand in square brackets, D forms with d. Residues, ends and D or L forms follow the SMILES beside them. ξ: configuration not given here. Trp(5-F) = N[C@@H](Cc1c[nH]c2ccc(F)cc12)C(=O)O; dTrp(5-F) = N[C@H](Cc1c[nH]c2ccc(F)cc12)C(=O)O; ξTrp(5-OMe) = COc1ccc2[nH]cc(CC(N)C(=O)O)c2c1; ξTrp(7-aza) = NC(Cc1c[nH]c2ncccc12)C(=O)O
Assays:
Format in all cases: cell-based
[1] = tested on: tested bacteria (ESKAPE pathogens, Listeria monocytogenes, Salmonella enterica)
Excerpt: (§1) The bacterial strains for the antimicrobial assay were obtained from the ATCC (American Type Culture Collection, Manassas, VA, USA) and NCTC (National Collection of Type Cultures, Salisbury, UK). Gram-negative strains were Pseudomonas aeruginosa (ATCC 27853), Escherichia coli (ATCC 8739, ATCC 35218, and ATCC 25922), Salmonella enterica (ATCC 13076), Klebsiella pneumoniae (NCTC 13440), Acinetobacter baumannii (ATCC 17978) and the Gram-positive strains were Enterococcus faecalis (ATCC 29212), Listeria monocytogenes (ATCC 19111), and Staphylococcus aureus (HNCMO112011 and ATCC 25923).
(§2) Determination of antibacterial activity for the peptides was carried out by utilizing a minimum bactericidal concentration (MBC) bioassay. Synthesized peptides were dissolved in sterile water and used from 25 to 0.125 μM in 2-fold dilution series and incubated with ~10^7 log phase bacteria in Potassium-Phosphate Buffer (PPB, pH: 7.4) for three hours as described earlier. After that, 5 μl of each sample was placed on LB agar and the growth of bacteria was monitored after overnight incubation at 37 °C. The lowest concentration of the antimicrobial agents that completely eliminated viable bacteria was considered the minimal bactericidal concentration (MBC).

[2] = tested on: Listeria monocytogenes (ATCC 19111); settings: ATCC 19111, 3 h, pH 7.4
Excerpt: as §1, §2

[3] = tested on: Salmonella enterica (ATCC 13076); settings: ATCC 13076, 3 h, pH 7.4
Excerpt: as §1, §2

[4] = tested on: Enterococcus faecalis (ATCC 29212); settings: ATCC 29212, 3 h, pH 7.4
Excerpt: as §1, §2

[5] = tested on: Staphylococcus aureus (HNCMO112011); settings: HNCMO112011, 3 h, pH 7.4
Excerpt: as §1, §2

[6] = tested on: Pseudomonas aeruginosa (ATCC 27853)
Excerpt: as §1, §2

[7] = tested on: Escherichia coli (ATCC 8739); settings: ATCC 8739, 3 h, pH 7.4
Excerpt: as §1, §2

[8] = tested on: Acinetobacter baumannii (ATCC 17978); settings: ATCC 17978, 3 h, pH 7.4
Excerpt: as §1, §2

[9] = tested on: Klebsiella pneumoniae (NCTC 13440)
Excerpt: as §1, §2

[10] = summary over the tested bacterial species, 3 h in PPB pH 7.4

| Compound | MBC against most or all of the tested bacteria [1, 10] | Minimal bactericidal concentration (MBC) L. m. [2] | Minimal bactericidal concentration (MBC) S. e. [3] | Minimal bactericidal concentration (MBC) E. f. [4] | Minimal bactericidal concentration (MBC) S. a. [5] | Minimal bactericidal concentration (MBC) P. a. ([6]; ATCC 27853, 3 h, pH 7.4) | Minimal bactericidal concentration (MBC) E. c. [7] | Minimal bactericidal concentration (MBC) A. b. [8] | Minimal bactericidal concentration (MBC) K. p. ([9]; NCTC 13440, 3 h, pH 7.4) | MBC against most or all of the tested bacteria ([1]; 3 h, pH 7.4) | Minimal bactericidal concentration (MBC) K. p. ([9]; Klebsiella pneumoniae NCTC 13440, ~10^7 log phase bacteria, 3 h in PPB pH 7.4, peptide 25 to 0.125 μM 2-fold series, plated on LB agar, overnight 37 °C) | Minimal bactericidal concentration (MBC) P. a. ([6]; Pseudomonas aeruginosa ATCC 27853, ~10^7 log phase bacteria, 3 h in PPB pH 7.4, peptide 25 to 0.125 μM 2-fold series, plated on LB agar, overnight 37 °C) |
| --- | --- | --- | --- | --- | --- | --- | --- | --- | --- | --- | --- | --- |
| CC[C@H](C)[C@H](NC(=O)[C@H](CCCCN)NC(=O)[C@H](Cc1ccccc1)NC(=O)[C@H](CC(C)C)NC(=O)[C@@H]1CCCN1C(=O)[C@H](CCCCN)NC(=O)[C@H](CCCCN)NC(=O)[C@H](CO)NC(=O)[C@@H](N)CCCCN)C(=O)N[C@H](Cc1c[nH]c2ccc(F)cc12)C(=O)N[C@@H](CCCCN)C(=O)N[C@@H](CO)C(=O)N[C@H](C(=O)N[C@@H](CCC(=O)O)C(=O)N[C@@H](CC(N)=O)C(=O)N[C@H](C(=O)N[C@@H](CO)C(=O)N[C@H](C(=O)N[C@@H](CC(C)C)C(=O)N[C@@H](Cc1c[nH]c2ccccc12)C(=O)N[C@@H](Cc1ccc(O)cc1)C(=O)N[C@@H](CCCCN)C(N)=O)C(C)C)C(C)C)C(C)C [NCR169C17–38C12,17/S-10W^5-F-D] (H-KSKKPLFKI[dTrp(5-F)]KSVENVSVLWYK-NH2; N-terminus assumed) | 1.6—6.3 µM | 6.3 µM (≈ 17.2 µg/mL) | 3.1 µM (≈ 8.45 µg/mL) | 1.6 µM (≈ 4.36 µg/mL) | 3.1 µM (≈ 8.45 µg/mL) | 3.1 µM (≈ 8.45 µg/mL) | 1.6 µM (≈ 4.36 µg/mL) | 1.6 µM (≈ 4.36 µg/mL) | 3.1 µM (≈ 8.45 µg/mL) |  |  |  |
| CC[C@H](C)[C@H](NC(=O)[C@H](CCCCN)NC(=O)[C@H](Cc1ccccc1)NC(=O)[C@H](CC(C)C)NC(=O)[C@@H]1CCCN1C(=O)[C@H](CCCCN)NC(=O)[C@H](CCCCN)NC(=O)[C@H](CO)NC(=O)[C@@H](N)CCCCN)C(=O)N[C@@H](Cc1c[nH]c2ccc(F)cc12)C(=O)N[C@@H](CCCCN)C(=O)N[C@@H](CO)C(=O)N[C@H](C(=O)N[C@@H](CCC(=O)O)C(=O)N[C@@H](CC(N)=O)C(=O)N[C@H](C(=O)N[C@@H](CO)C(=O)N[C@H](C(=O)N[C@@H](CC(C)C)C(=O)N[C@@H](Cc1c[nH]c2ccccc12)C(=O)N[C@@H](Cc1ccc(O)cc1)C(=O)N[C@@H](CCCCN)C(N)=O)C(C)C)C(C)C)C(C)C [NCR169C17–38C12,17/S-10W^5-F-L] (H-KSKKPLFKI[Trp(5-F)]KSVENVSVLWYK-NH2; N-terminus assumed) | 1.6—6.3 µM | 1.6 µM (≈ 4.36 µg/mL) | 1.6 µM (≈ 4.36 µg/mL) | 1.6 µM (≈ 4.36 µg/mL) | 1.6 µM (≈ 4.36 µg/mL) | 1.6 µM (≈ 4.36 µg/mL) | 1.6 µM (≈ 4.36 µg/mL) | 1.6 µM (≈ 4.36 µg/mL) | 3.1 µM (≈ 8.45 µg/mL) | 1.6 µM | 3.1 µM (≈ 8.45 µg/mL) |  |
| CC[C@H](C)[C@H](NC(=O)[C@H](CCCCN)NC(=O)[C@H](Cc1ccccc1)NC(=O)[C@H](CC(C)C)NC(=O)[C@@H]1CCCN1C(=O)[C@H](CCCCN)NC(=O)[C@H](CCCCN)NC(=O)[C@H](CO)NC(=O)[C@@H](N)CCCCN)C(=O)NC(Cc1c[nH]c2ccc(OC)cc12)C(=O)N[C@@H](CCCCN)C(=O)N[C@@H](CO)C(=O)N[C@H](C(=O)N[C@@H](CCC(=O)O)C(=O)N[C@@H](CC(N)=O)C(=O)N[C@H](C(=O)N[C@@H](CO)C(=O)N[C@H](C(=O)N[C@@H](CC(C)C)C(=O)N[C@@H](Cc1c[nH]c2ccccc12)C(=O)N[C@@H](Cc1ccc(O)cc1)C(=O)N[C@@H](CCCCN)C(N)=O)C(C)C)C(C)C)C(C)C (stereo partly shown) [NCR169C17–38C12,17/S-10W^5-MeO II] (H-KSKKPLFKI[ξTrp(5-OMe)]KSVENVSVLWYK-NH2; N-terminus assumed) |  | 3.1 µM (≈ 8.49 µg/mL) | 3.1 µM (≈ 8.49 µg/mL) | 3.1 µM (≈ 8.49 µg/mL) | 3.1 µM (≈ 8.49 µg/mL) |  | 3.1 µM (≈ 8.49 µg/mL) | 3.1 µM (≈ 8.49 µg/mL) | 3.1 µM (≈ 8.49 µg/mL) | 3.1 µM |  | 25 µM (≈ 68.4 µg/mL) |
| CC[C@H](C)[C@H](NC(=O)[C@H](CCCCN)NC(=O)[C@H](Cc1ccccc1)NC(=O)[C@H](CC(C)C)NC(=O)[C@@H]1CCCN1C(=O)[C@H](CCCCN)NC(=O)[C@H](CCCCN)NC(=O)[C@H](CO)NC(=O)[C@@H](N)CCCCN)C(=O)NC(Cc1c[nH]c2ccc(OC)cc12)C(=O)N[C@@H](CCCCN)C(=O)N[C@@H](CO)C(=O)N[C@H](C(=O)N[C@@H](CCC(=O)O)C(=O)N[C@@H](CC(N)=O)C(=O)N[C@H](C(=O)N[C@@H](CO)C(=O)N[C@H](C(=O)N[C@@H](CC(C)C)C(=O)N[C@@H](Cc1c[nH]c2ccccc12)C(=O)N[C@@H](Cc1ccc(O)cc1)C(=O)N[C@@H](CCCCN)C(N)=O)C(C)C)C(C)C)C(C)C (stereo partly shown) [NCR169C17–38C12,17/S-10W^5-MeO I] (H-KSKKPLFKI[ξTrp(5-OMe)]KSVENVSVLWYK-NH2; N-terminus assumed) |  | 1.6 µM (≈ 4.38 µg/mL) | 1.6 µM (≈ 4.38 µg/mL) | 1.6 µM (≈ 4.38 µg/mL) | 1.6 µM (≈ 4.38 µg/mL) |  | 3.1 µM (≈ 8.49 µg/mL) | 1.6 µM (≈ 4.38 µg/mL) | 1.6 µM (≈ 4.38 µg/mL) | 1.6 µM |  |  |
| CC[C@H](C)[C@H](NC(=O)[C@H](CCCCN)NC(=O)[C@H](Cc1ccccc1)NC(=O)[C@H](CC(C)C)NC(=O)[C@@H]1CCCN1C(=O)[C@H](CCCCN)NC(=O)[C@H](CCCCN)NC(=O)[C@H](CO)NC(=O)[C@@H](N)CCCCN)C(=O)NC(Cc1c[nH]c2ncccc12)C(=O)N[C@@H](CCCCN)C(=O)N[C@@H](CO)C(=O)N[C@H](C(=O)N[C@@H](CCC(=O)O)C(=O)N[C@@H](CC(N)=O)C(=O)N[C@H](C(=O)N[C@@H](CO)C(=O)N[C@H](C(=O)N[C@@H](CC(C)C)C(=O)N[C@@H](Cc1c[nH]c2ccccc12)C(=O)N[C@@H](Cc1ccc(O)cc1)C(=O)N[C@@H](CCCCN)C(N)=O)C(C)C)C(C)C)C(C)C (stereo partly shown) [NCR169C17–38C12,17/S-10W^7-Aza II] (H-KSKKPLFKI[ξTrp(7-aza)]KSVENVSVLWYK-NH2; N-terminus assumed) |  | 3.1 µM (≈ 8.4 µg/mL) | 3.1 µM (≈ 8.4 µg/mL) | 3.1 µM (≈ 8.4 µg/mL) | 3.1 µM (≈ 8.4 µg/mL) | 3.1 µM (≈ 8.4 µg/mL) | 3.1 µM (≈ 8.4 µg/mL) | 6.3 µM (≈ 17.1 µg/mL) | 6.3 µM (≈ 17.1 µg/mL) | 3.1 µM |  |  |
| CC[C@H](C)[C@H](NC(=O)[C@H](CCCCN)NC(=O)[C@H](Cc1ccccc1)NC(=O)[C@H](CC(C)C)NC(=O)[C@@H]1CCCN1C(=O)[C@H](CCCCN)NC(=O)[C@H](CCCCN)NC(=O)[C@H](CO)NC(=O)[C@@H](N)CCCCN)C(=O)NC(Cc1c[nH]c2ncccc12)C(=O)N[C@@H](CCCCN)C(=O)N[C@@H](CO)C(=O)N[C@H](C(=O)N[C@@H](CCC(=O)O)C(=O)N[C@@H](CC(N)=O)C(=O)N[C@H](C(=O)N[C@@H](CO)C(=O)N[C@H](C(=O)N[C@@H](CC(C)C)C(=O)N[C@@H](Cc1c[nH]c2ccccc12)C(=O)N[C@@H](Cc1ccc(O)cc1)C(=O)N[C@@H](CCCCN)C(N)=O)C(C)C)C(C)C)C(C)C (stereo partly shown) [NCR169C17–38C12,17/S-10W^7-Aza I] (H-KSKKPLFKI[ξTrp(7-aza)]KSVENVSVLWYK-NH2; N-terminus assumed) |  | 3.1 µM (≈ 8.4 µg/mL) | 3.1 µM (≈ 8.4 µg/mL) | 6.3 µM (≈ 17.1 µg/mL) | 3.1 µM (≈ 8.4 µg/mL) | 3.1 µM (≈ 8.4 µg/mL) | 3.1 µM (≈ 8.4 µg/mL) | 3.1 µM (≈ 8.4 µg/mL) | 6.3 µM (≈ 17.1 µg/mL) | 3.1 µM |  |  |

Source: article PMC9917201, “Enhanced Antibacterial Activity of Substituted Derivatives of NCR169C Peptide” (International Journal of Molecular Sciences, 2023)
